Reference: ChEMBL document CHEMBL3885861, “Open TG-GATES”

Species on record: Rattus norvegicus
Assay: Open TG-GATES - Regimen: Daily Repeat
Assay type: toxicity, organism-based, Sprague-Dawley
Parameters: regimen Daily Repeat, gender Male, age 6 weeks
Settings: in vivo, po, 0 mg/kg, route gavage, dose level Control; for APTT / Bas / Eos / Fbg / Hb / Ht / Lym / MCH / MCHC / MCV / Mono / Neu / PT / Plat / RBC / Ret / WBC: tissue Blood; for KIDNEY_L / KIDNEY_R / KIDNEY_TOTAL: tissue Kidney; for LIVER: tissue Liver; for A/G / ALP / ALT / AST / BUN / CRE / Ca / Cl / DBIL / GLC / IP / K / LDH / Na / PL / RALB / TBIL / TC / TG / TP / gamma-GTP: tissue Plasma

For `COc1ccc(Cl)cc1C(=O)NCCc1ccc(S(=O)(=O)NC(=O)NC2CCCCC2)cc1` [GLYBURIDE], the TERMINAL_BW (72 h, time 3 day) was 234.5 g, the APTT (72 h, time 3 day) was 19.1 s and the Bas (72 h, time 3 day) was 0%. For the same compound, the Eos (72 h, time 3 day) was 0.8%, the Fbg (72 h, time 3 day) was 225.4 mg/dL and the Hb (72 h, time 3 day) was 13.3 g/dL. It also gave a Ht (72 h, time 3 day) of 39.9%, a Lym (72 h, time 3 day) of 81.6% and an MCH (72 h, time 3 day) of 21.1 pg. For the same compound, the MCHC (72 h, time 3 day) was 33.2%, the MCV (72 h, time 3 day) was 63.5 fL and the Mono (72 h, time 3 day) was 2.6%. It also gave a Neu (72 h, time 3 day) of 14.6%, a PT (72 h, time 3 day) of 12.1 s and a Plat (72 h, time 3 day) of 124.6 x10_4/uL. It also gave an RBC (72 h, time 3 day) of 628.4 x10_4/ul, a Ret (72 h, time 3 day) of 6.8% and a WBC (72 h, time 3 day) of 86.4 x10_2/uL. It also gave a KIDNEY_L (72 h, time 3 day) of 1 g, a KIDNEY_R (72 h, time 3 day) of 1 g and a KIDNEY_TOTAL (72 h, time 3 day) of 2 g. For the same compound, the LIVER (72 h, time 3 day) was 11.7 g, the A/G (72 h, time 3 day) was 1.7 and the ALP (72 h, time 3 day) was 939.6 IU/L. It also gave an ALT (72 h, time 3 day) of 43.2 IU/L, an AST (72 h, time 3 day) of 66.4 IU/L and a BUN (72 h, time 3 day) of 15.2 mg/dL. It also gave a CRE (72 h, time 3 day) of 0.4 mg/dL, a Ca (72 h, time 3 day) of 10.9 mg/dL and a Cl (72 h, time 3 day) of 102.4 meq/L. For the same compound, the DBIL (72 h, time 3 day) was 0.1 mg/dL, the GLC (72 h, time 3 day) was 207 mg/dL and the IP (72 h, time 3 day) was 7.4 mg/dL. For the same compound, the K (72 h, time 3 day) was 4.2 meq/L, the LDH (72 h, time 3 day) was 159.2 IU/L and the Na (72 h, time 3 day) was 141 meq/L. It also gave a PL (72 h, time 3 day) of 160.2 mg/dL, an RALB (72 h, time 3 day) of 3.5 g/dL and a TBIL (72 h, time 3 day) of 0.2 mg/dL. It also gave a TC (72 h, time 3 day) of 86 mg/dL, a TG (72 h, time 3 day) of 92.6 mg/dL and a TP (72 h, time 3 day) of 5.6 g/dL. It also gave a gamma-GTP (72 h, time 3 day) of 1.4 IU/L, a TERMINAL_BW ([…], time 7 day) of 268.9 g and a TERMINAL_BW ([…], time 14 day) of 320.1 g. It also gave a TERMINAL_BW ([…], time 28 day) of 406.6 g, an APTT ([…], time 7 day) of 18.2 s and a Bas ([…], time 7 day) of 0%. For the same compound, the Eos ([…], time 7 day) was 0.8%, the Fbg ([…], time 7 day) was 217.8 mg/dL and the Hb ([…], time 7 day) was 13.7 g/dL. The Ht ([…], time 7 day) was 40.6%, the Lym ([…], time 7 day) was 79.8% and the MCH ([…], time 7 day) was 21.2 pg. The MCHC ([…], time 7 day) was 33.7%, the MCV ([…], time 7 day) was 63 fL and the Mono ([…], time 7 day) was 2.8%. For the same compound, the Neu ([…], time 7 day) was 16.2%, the PT ([…], time 7 day) was 12.4 s and the Plat ([…], time 7 day) was 121.3 x10_4/uL. It also gave an RBC ([…], time 7 day) of 644.2 x10_4/ul, a Ret ([…], time 7 day) of 5.5% and a WBC ([…], time 7 day) of 115 x10_2/uL. The APTT ([…], time 14 day) was 21.1 s, the Bas ([…], time 14 day) was 0% and the Eos ([…], time 14 day) was 0.6%. The Fbg ([…], time 14 day) was 223.6 mg/dL, the Hb ([…], time 14 day) was 14.1 g/dL and the Ht ([…], time 14 day) was 41%. It also gave a Lym ([…], time 14 day) of 79.8%, an MCH ([…], time 14 day) of 20.1 pg and an MCHC ([…], time 14 day) of 34.3%. For the same compound, the MCV ([…], time 14 day) was 58.5 fL, the Mono ([…], time 14 day) was 2.6% and the Neu ([…], time 14 day) was 16.4%. It also gave a PT ([…], time 14 day) of 12.2 s, a Plat ([…], time 14 day) of 122.3 x10_4/uL and an RBC ([…], time 14 day) of 701 x10_4/ul. It also gave a Ret ([…], time 14 day) of 4.3%, a WBC ([…], time 14 day) of 124.8 x10_2/uL and an APTT ([…], time 28 day) of 19.9 s. The Bas ([…], time 28 day) was 0%, the Eos ([…], time 28 day) was 1% and the Fbg ([…], time 28 day) was 211 mg/dL. It also gave a Hb ([…], time 28 day) of 15.1 g/dL, a Ht ([…], time 28 day) of 43.1% and a Lym ([…], time 28 day) of 83.8%. It also gave an MCH ([…], time 28 day) of 20.1 pg, an MCHC ([…], time 28 day) of 35.1% and an MCV ([…], time 28 day) of 57.2 fL. The Mono ([…], time 28 day) was 2%, the Neu ([…], time 28 day) was 12.8% and the PT ([…], time 28 day) was 12.3 s. For the same compound, the Plat ([…], time 28 day) was 100.6 x10_4/uL, the RBC ([…], time 28 day) was 753.2 x10_4/ul and the Ret ([…], time 28 day) was 2.8%. For the same compound, the WBC ([…], time 28 day) was 133.4 x10_2/uL, the KIDNEY_L ([…], time 7 day) was 1.2 g and the KIDNEY_R ([…], time 7 day) was 1.2 g. For the same compound, the KIDNEY_TOTAL ([…], time 7 day) was 2.3 g, the KIDNEY_L ([…], time 14 day) was 1.2 g and the KIDNEY_R ([…], time 14 day) was 1.3 g. It also gave a KIDNEY_TOTAL ([…], time 14 day) of 2.5 g, a KIDNEY_L ([…], time 28 day) of 1.3 g and a KIDNEY_R ([…], time 28 day) of 1.4 g. It also gave a KIDNEY_TOTAL ([…], time 28 day) of 2.7 g, an LIVER ([…], time 7 day) of 12.7 g and an LIVER ([…], time 14 day) of 14 g. For the same compound, the LIVER ([…], time 28 day) was 17.3 g, the A/G ([…], time 7 day) was 1.5 and the ALP ([…], time 7 day) was 926.8 IU/L. For the same compound, the ALT ([…], time 7 day) was 36.6 IU/L, the AST ([…], time 7 day) was 59.8 IU/L and the BUN ([…], time 7 day) was 16.8 mg/dL. The CRE ([…], time 7 day) was 0.4 mg/dL, the Ca ([…], time 7 day) was 10.8 mg/dL and the Cl ([…], time 7 day) was 102.8 meq/L. The DBIL ([…], time 7 day) was 0.1 mg/dL, the GLC ([…], time 7 day) was 217 mg/dL and the IP ([…], time 7 day) was 7.3 mg/dL. The K ([…], time 7 day) was 3.9 meq/L, the LDH ([…], time 7 day) was 129.6 IU/L and the Na ([…], time 7 day) was 141.6 meq/L. The PL ([…], time 7 day) was 152 mg/dL, the RALB ([…], time 7 day) was 3.3 g/dL and the TBIL ([…], time 7 day) was 0.2 mg/dL. It also gave a TC ([…], time 7 day) of 71.6 mg/dL, a TG ([…], time 7 day) of 128.2 mg/dL and a TP ([…], time 7 day) of 5.5 g/dL. For the same compound, the gamma-GTP ([…], time 7 day) was 1 IU/L, the A/G ([…], time 14 day) was 1.5 and the ALP ([…], time 14 day) was 785.6 IU/L. For the same compound, the ALT ([…], time 14 day) was 36.2 IU/L, the AST ([…], time 14 day) was 62.6 IU/L and the BUN ([…], time 14 day) was 14 mg/dL. It also gave a CRE ([…], time 14 day) of 0.5 mg/dL, a Ca ([…], time 14 day) of 10.7 mg/dL and a Cl ([…], time 14 day) of 102.6 meq/L. It also gave a DBIL ([…], time 14 day) of 0.1 mg/dL, a GLC ([…], time 14 day) of 199.8 mg/dL and an IP ([…], time 14 day) of 6.6 mg/dL. It also gave a K ([…], time 14 day) of 4 meq/L, an LDH ([…], time 14 day) of 154.6 IU/L and a Na ([…], time 14 day) of 140.4 meq/L. For the same compound, the PL ([…], time 14 day) was 155.2 mg/dL, the RALB ([…], time 14 day) was 3.6 g/dL and the TBIL ([…], time 14 day) was 0.2 mg/dL. The TC ([…], time 14 day) was 74.6 mg/dL, the TG ([…], time 14 day) was 104.8 mg/dL and the TP ([…], time 14 day) was 6 g/dL. For the same compound, the gamma-GTP ([…], time 14 day) was 1.2 IU/L, the A/G ([…], time 28 day) was 1.5 and the ALP ([…], time 28 day) was 561.8 IU/L. For the same compound, the ALT ([…], time 28 day) was 31.4 IU/L, the AST ([…], time 28 day) was 60 IU/L and the BUN ([…], time 28 day) was 16.8 mg/dL. For the same compound, the CRE ([…], time 28 day) was 0.5 mg/dL, the Ca ([…], time 28 day) was 10.5 mg/dL and the Cl ([…], time 28 day) was 103.8 meq/L. The DBIL ([…], time 28 day) was 0.1 mg/dL, the GLC ([…], time 28 day) was 214 mg/dL and the IP ([…], time 28 day) was 6.6 mg/dL. It also gave a K ([…], time 28 day) of 3.9 meq/L, an LDH ([…], time 28 day) of 143.2 IU/L and a Na ([…], time 28 day) of 141.2 meq/L. It also gave a PL ([…], time 28 day) of 143.8 mg/dL, an RALB ([…], time 28 day) of 3.5 g/dL and a TBIL ([…], time 28 day) of 0.2 mg/dL. It also gave a TC ([…], time 28 day) of 75.4 mg/dL, a TG ([…], time 28 day) of 91.2 mg/dL and a TP ([…], time 28 day) of 5.9 g/dL. It also gave a gamma-GTP ([…], time 28 day) of 0.8 IU/L.
